Source: ChEMBL document CHEMBL2074075, “Functional assay of multidrug resistant cells using JC-1, a carbocyanine fluorescent probe” (Leukemia, 1997)

Key:
[1] = target: T1, ATP-dependent translocase ABCB1 (Homo sapiens, UniProt P08183); assay: TP_TRANSPORTER: inhibition of JC-1 uptake (JC-1: ca 0.1 uM, S9788: 5 uM) in K562 and K562/ADR cells, flow cytometry; type: functional, cell-based
[2] = target: T1, ATP-dependent translocase ABCB1; assay: TP_TRANSPORTER: spectrofluorimetric analysis (intracellular accumulation) in K562 and K562/ADR cells; type: functional, cell-based

T1 sequence (P08183 whole entry): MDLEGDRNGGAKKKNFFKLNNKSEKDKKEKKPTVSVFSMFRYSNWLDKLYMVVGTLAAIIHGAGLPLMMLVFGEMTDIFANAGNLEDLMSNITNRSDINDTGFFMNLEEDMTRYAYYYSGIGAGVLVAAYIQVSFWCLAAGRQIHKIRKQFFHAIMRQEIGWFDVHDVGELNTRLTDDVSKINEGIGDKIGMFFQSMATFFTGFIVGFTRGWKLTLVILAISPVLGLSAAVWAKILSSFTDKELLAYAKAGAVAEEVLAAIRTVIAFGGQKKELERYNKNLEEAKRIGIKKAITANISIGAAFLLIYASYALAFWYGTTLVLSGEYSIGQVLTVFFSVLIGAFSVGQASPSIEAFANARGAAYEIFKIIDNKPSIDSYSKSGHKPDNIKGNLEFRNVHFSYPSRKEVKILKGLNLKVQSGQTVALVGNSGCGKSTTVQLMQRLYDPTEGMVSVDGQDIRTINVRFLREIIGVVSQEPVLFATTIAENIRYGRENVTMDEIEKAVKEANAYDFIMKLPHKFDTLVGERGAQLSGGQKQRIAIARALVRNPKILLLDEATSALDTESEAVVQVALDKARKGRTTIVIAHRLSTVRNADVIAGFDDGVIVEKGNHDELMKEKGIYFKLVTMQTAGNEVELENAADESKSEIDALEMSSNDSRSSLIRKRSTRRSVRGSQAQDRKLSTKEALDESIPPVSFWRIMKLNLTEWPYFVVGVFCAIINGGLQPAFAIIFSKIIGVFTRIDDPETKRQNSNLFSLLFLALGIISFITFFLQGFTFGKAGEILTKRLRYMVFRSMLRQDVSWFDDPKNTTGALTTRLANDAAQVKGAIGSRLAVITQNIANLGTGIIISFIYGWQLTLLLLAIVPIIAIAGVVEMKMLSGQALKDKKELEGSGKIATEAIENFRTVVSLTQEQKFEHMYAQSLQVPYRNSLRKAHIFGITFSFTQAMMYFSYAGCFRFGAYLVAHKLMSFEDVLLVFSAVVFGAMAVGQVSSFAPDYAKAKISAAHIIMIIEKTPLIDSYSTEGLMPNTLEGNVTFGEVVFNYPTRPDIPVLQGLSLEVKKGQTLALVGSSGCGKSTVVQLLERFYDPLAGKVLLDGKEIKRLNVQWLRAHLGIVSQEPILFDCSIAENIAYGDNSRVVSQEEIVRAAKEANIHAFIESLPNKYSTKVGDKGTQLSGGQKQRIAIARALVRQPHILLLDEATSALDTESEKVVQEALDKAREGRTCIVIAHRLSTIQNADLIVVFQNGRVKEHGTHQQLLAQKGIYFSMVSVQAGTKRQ

SMILES | Activity [1] | Activity [2]
C=CCNc1nc(NCC=C)nc(N2CCC(NCC(c3ccc(F)cc3)c3ccc(F)cc3)CC2)n1 | inhibitor [+] | 
CCN1C(=C/C=C/c2n(CC)c3cc(Cl)c(Cl)cc3[n+]2CC)N(CC)c2cc(Cl)c(Cl)cc21.[I-] |  | substrate [+]
